Values joined by “and” are separate entries in the source; they are usually repeats but may differ in a detail not shown here. Equal entries are not always repeated. Inconclusive results and toxic doses are left out. How the source made its calls: active means survival T/C of 150% or more; inactive means T/C below 125% in these data.
Test system: P388 leukemia ip, CD2F1 mice, survival T/C
Test: NCI In Vivo Anticancer Drug Screen. Data for tumor model P388 Leukemia (intraperitoneal) in CD2F1 (CDF1) mice
Details: endpoint: median survival time, higher = longer survival
Procedure, shortened: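 Mice carrying the transplanted tumor received test compound or vehicle. Survival was recorded in each group, and the value is the treated-group measurement divided by that of the vehicle-treated control group.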

[1] = dose: 50.0 mg/kg/injection, schedule: Q01DX005 (ip), vehicle: saline with Tween-80
[2] = dose: 100.0 mg/kg/injection, schedule: Q01DX005 (ip), vehicle: saline with Tween-80
[3] = dose: 200.0 mg/kg/injection, schedule: Q01DX005 (ip), vehicle: saline with Tween-80
[4] = dose: 50.0 mg/kg/injection, schedule: Q01DX005 (ip), vehicle: saline
[5] = dose: 100.0 mg/kg/injection, schedule: Q01DX005 (ip), vehicle: saline
[6] = dose: 200.0 mg/kg/injection, schedule: Q01DX005 (ip), vehicle: saline
[7] = dose: 50.0 mg/kg/injection, schedule: Q01DX009 (ip), vehicle: Klucel (hydroxypropylcellulose) (HPC)
[8] = dose: 100.0 mg/kg/injection, schedule: Q01DX009 (ip), vehicle: Klucel (hydroxypropylcellulose) (HPC)
[9] = dose: 200.0 mg/kg/injection, schedule: Q01DX009 (ip), vehicle: Klucel (hydroxypropylcellulose) (HPC)
[10] = dose: 50.0 mg/kg/injection, schedule: Q01DX009 (ip), vehicle: saline
[11] = dose: 100.0 mg/kg/injection, schedule: Q01DX009 (ip), vehicle: saline
[12] = dose: 200.0 mg/kg/injection, schedule: Q01DX009 (ip), vehicle: saline
[13] = dose: 25.0 mg/kg/injection, schedule: Q01DX009 (ip), vehicle: saline with Tween-80
[14] = dose: 50.0 mg/kg/injection, schedule: Q01DX009 (ip), vehicle: saline with Tween-80
[15] = dose: 100.0 mg/kg/injection, schedule: Q01DX009 (ip), vehicle: saline with Tween-80

Measured: T/C

CN(N=O)C(=O)N[C@@H](C=O)[C@@H](O)[C@H](O)[C@H](O)CO
inactive: dose: 31.25 mg/kg/injection, schedule: Q01DX001 (ip), vehicle: other 105 % of control and 106 % of control | dose: 62.5 mg/kg/injection, schedule: Q01DX001 (ip), vehicle: other 105 % of control and 109 % of control | dose: 80.0 mg/kg/injection, schedule: Q04DX003 (ip), vehicle: citric acid 110 % of control | dose: 80.0 mg/kg/injection, schedule: Q04DX003 (ip), vehicle: other 108 % of control | dose: 120.0 mg/kg/injection, schedule: Q04DX003 (ip), vehicle: other 107 % of control and 114 % of control | dose: 125.0 mg/kg/injection, schedule: Q01DX001 (ip), vehicle: other 111 % of control and 117 % of control | dose: 180.0 mg/kg/injection, schedule: Q04DX003 (ip), vehicle: citric acid 119 % of control | dose: 180.0 mg/kg/injection, schedule: Q04DX003 (ip), vehicle: other 118 % of control and 122 % of control | dose: 240.0 mg/kg/injection, schedule: Q04DX003 (ip), vehicle: other 112 % of control and 120 % of control | dose: 500.0 mg/kg/injection, schedule: Q01DX001 (ip), vehicle: other 90 % of control

C=CCSC(=S)Nc1nc2ccc(C)cc2s1
inactive: dose: 100.0 mg/kg/injection, schedule: Q04DX003 (ip), vehicle: Klucel (hydroxypropylcellulose) (HPC) 96 % of control | dose: 200.0 mg/kg/injection, schedule: Q04DX003 (ip), vehicle: Klucel (hydroxypropylcellulose) (HPC) 98 % of control | dose: 400.0 mg/kg/injection, schedule: Q04DX003 (ip), vehicle: Klucel (hydroxypropylcellulose) (HPC) 97 % of control

O=C1CS[C@@H]2C(=O)CCCC2C1 (some centres not stated)
inactive: [1] 98 % of control | [2] 98 % of control | [3] 92 % of control

NC1CCCCCCC1
inactive: [4] 94 % of control | [5] 103 % of control | [6] 117 % of control

N#CCCN(C(=O)Nc1ccccc1)c1ccccc1
inactive: [7] 103 % of control | [8] 107 % of control | [9] 107 % of control

CCCOc1cc2c(cc1C(C)c1ccc(OC)cc1)OCO2 (configuration not stated)
inactive: dose: 25.0 mg/kg/injection, schedule: Q01DX005 (ip), vehicle: distilled water + alcohol 106 % of control | dose: 400.0 mg/kg/injection, schedule: Q01DX005 (ip), vehicle: distilled water + alcohol 112 % of control and 114 % of control

C1CCN2CC3CCCN4CCCC(C2C1)C34 (configuration not stated)
inactive: dose: 6.2 mg/kg/injection, schedule: Q01DX007 (ip), vehicle: carboxymethylcellulose (CMC) 91 % of control and 100 % of control | dose: 12.5 mg/kg/injection, schedule: Q01DX007 (ip), vehicle: carboxymethylcellulose (CMC) 91 % of control | dose: 25.0 mg/kg/injection, schedule: Q01DX007 (ip), vehicle: carboxymethylcellulose (CMC) 91 % of control

CNCc1cccc2ccnc(C)c12
inactive: dose: 100.0 mg/kg/injection, schedule: Q01DX001 (ip), vehicle: saline with Tween-80 100 % of control | dose: 200.0 mg/kg/injection, schedule: Q01DX001 (ip), vehicle: saline with Tween-80 99 % of control | dose: 400.0 mg/kg/injection, schedule: Q01DX001 (ip), vehicle: saline with Tween-80 96 % of control

O=C(O)C1=NN(c2ccc(S(=O)(=O)O)cc2)C(=O)C1N=Nc1ccc(S(=O)(=O)O)cc1 (configuration not stated)
inactive: [10] 95 % of control | [11] 100 % of control | [12] 100 % of control | dose: 400.0 mg/kg/injection, schedule: Q01DX009 (ip), vehicle: saline 95 % of control

CNC1=CC(=S)NC(C)(C)C1
inactive: [10] 100 % of control | [11] 92 % of control | [12] 92 % of control

COc1ccccc1N=N/C(=N\Nc1ccccc1OC)C(=O)Nc1ccccc1
inactive: dose: 6.25 mg/kg/injection, schedule: Q01DX009 (ip), vehicle: saline 89 % of control | dose: 12.5 mg/kg/injection, schedule: Q01DX009 (ip), vehicle: saline 91 % of control | dose: 25.0 mg/kg/injection, schedule: Q01DX009 (ip), vehicle: saline 90 % of control | [11] 93 % of control

CCCOC(=O)CCCC1=NC2=CC=CC3=NC(C)=NC(=N1)N23
inactive: [13] 107 % of control | [14] 104 % of control | [15] 104 % of control

Cc1c([O-])[n+]2cccc3ccn(c1=O)c32
inactive: dose: 60.0 mg/kg/injection, schedule: Q01DX005 (ip), vehicle: Klucel (hydroxypropylcellulose) (HPC) 97 % of control | dose: 120.0 mg/kg/injection, schedule: Q01DX005 (ip), vehicle: Klucel (hydroxypropylcellulose) (HPC) 100 % of control | dose: 240.0 mg/kg/injection, schedule: Q01DX005 (ip), vehicle: Klucel (hydroxypropylcellulose) (HPC) 94 % of control

O=C(Sc1ccc(F)cc1)N1CCN(C(=O)Sc2ccc(F)cc2)CC1
inactive: dose: 50.0 mg/kg/injection, schedule: Q01DX005 (ip), vehicle: Klucel (hydroxypropylcellulose) (HPC) 99 % of control | dose: 100.0 mg/kg/injection, schedule: Q01DX005 (ip), vehicle: Klucel (hydroxypropylcellulose) (HPC) 96 % of control | dose: 200.0 mg/kg/injection, schedule: Q01DX005 (ip), vehicle: Klucel (hydroxypropylcellulose) (HPC) 100 % of control

O=C(O)C1CCCN1C(=O)c1cccc(Cl)c1 (configuration not stated)
inactive: [1] 94 % of control | [2] 96 % of control | [3] 87 % of control

CCCCn1/c(=N/N=Nc2ccccc2)sc2ccccc21
inactive: dose: 7.5 mg/kg/injection, schedule: Q01DX005 (ip), vehicle: saline with Tween-80 115 % of control | dose: 15.0 mg/kg/injection, schedule: Q01DX005 (ip), vehicle: saline with Tween-80 117 % of control | dose: 30.0 mg/kg/injection, schedule: Q01DX005 (ip), vehicle: saline with Tween-80 118 % of control

COC(=O)C1CC2CC(O)CN(CCc3c1[nH]c1ccccc31)C2 (configuration not stated)
inactive: dose: 3.63 mg/kg/injection, schedule: Q01DX005 (ip), vehicle: Klucel (hydroxypropylcellulose) (HPC) 104 % of control | dose: 7.25 mg/kg/injection, schedule: Q01DX005 (ip), vehicle: Klucel (hydroxypropylcellulose) (HPC) 100 % of control | dose: 14.5 mg/kg/injection, schedule: Q01DX005 (ip), vehicle: Klucel (hydroxypropylcellulose) (HPC) 104 % of control | dose: 29.0 mg/kg/injection, schedule: Q01DX005 (ip), vehicle: Klucel (hydroxypropylcellulose) (HPC) 89 % of control

CCOC(=O)/C(C#N)=C/C=C1\C=CC=CN1C
inactive: dose: 12.5 mg/kg/injection, schedule: Q01DX009 (ip), vehicle: saline with Tween-80 95 % of control | [13] 86 % of control | [14] 90 % of control

CC(C)C(=NN/C=N/S(C)(=O)=O)C(C)C
inactive: dose: 25.0 mg/kg/injection, schedule: Q01DX001 (ip), vehicle: Klucel (hydroxypropylcellulose) (HPC) 92 % of control | dose: 50.0 mg/kg/injection, schedule: Q01DX001 (ip), vehicle: Klucel (hydroxypropylcellulose) (HPC) 112 % of control | dose: 100.0 mg/kg/injection, schedule: Q01DX001 (ip), vehicle: Klucel (hydroxypropylcellulose) (HPC) 97 % of control

CC(=O)OCC1OC(n2cccc(OC(C)=O)c2=O)C(OC(C)=O)C1OC(C)=O (configuration not stated)
inactive: [4] 103 % of control | dose: 50.0 mg/kg/injection, schedule: Q01DX005 (ip), vehicle: suspension in saline 99 % of control | [5] 99 % of control | dose: 100.0 mg/kg/injection, schedule: Q01DX005 (ip), vehicle: suspension in saline 99 % of control | [6] 102 % of control | dose: 200.0 mg/kg/injection, schedule: Q01DX005 (ip), vehicle: suspension in saline 113 % of control | dose: 400.0 mg/kg/injection, schedule: Q01DX005 (ip), vehicle: saline 98 % of control | dose: 400.0 mg/kg/injection, schedule: Q01DX005 (ip), vehicle: suspension in saline 96 % of control

CCOC(=O)C(C)(C)CN(CCCN(C)C)CC(C)(C)C(=O)OCC
inactive: [14] 105 % of control | [15] 115 % of control

O=C(Nc1ccc(Cl)c(Cl)c1)C1C(=O)C(=O)N(c2ccc(Cl)c(Cl)c2)C1=O (configuration not stated)
inactive: [7] 97 % of control | dose: 60.0 mg/kg/injection, schedule: Q01DX005 (ip), vehicle: saline with Tween-80 101 % of control | [8] 109 % of control | dose: 120.0 mg/kg/injection, schedule: Q01DX005 (ip), vehicle: saline with Tween-80 100 % of control | [9] 103 % of control | dose: 240.0 mg/kg/injection, schedule: Q01DX005 (ip), vehicle: saline with Tween-80 103 % of control

From PubChem BioAssay AID330 (DTP/NCI, 2004)
